Source: patent publication US20100069387A1, “IKK Inhibitors for the Treatment of Endometriosis” (priority 2005, published 2010)

Experiments:
[1] = cited from earlier work
endometriotic lesions [2] = experiment: Nude mouse xenograft model of endometriosis (human endometrial tissue injected in ovarectomized nude mice); assay type: in vivo; conditions: for Lesion (% Progesterone) Compared to progesterone treated group, decrease: treatment started 10 days after tissue injection
Procedure: Human endometrial tissue was injected in ovarectomized nude mice to establish the disease (Bruner-Tran et al 2002). In brief, endometrial biopsies obtained from normal volunteers or from endometriotic patients were cut into small pieces and cultured in the presence of estradiol for 24 h. Treated tissues, were injected either subcutaneously or intraperitoneally into ovarectomized nude mice with estradiol implant. Within 2-4 days of injection, ectopic endometriotic lesions develop in animals. Treatment with either progesterone or IKK inhibitor-5 (1-(4-{4-[4-(4-Chloro-phenyl)-pyrimidin-2-ylamino]-benzoyl}-piperazin-1-yl)-ethanone) was started 10 days following the injection of tissue. The compound was administered at a dose of 10 mg/kg and 30 mg/kg/animal for 15 days. […] Following the completion of treatment, animals were sacrificed, lesions developed from the transplanted tissue found in both subcutaneous and intraperitoneal sites, were measured (both size and number).
The IKK inhibitor treatment had no effect on the uterine weight and size of the animals.

endometriotic lesions [3] = conditions: control treatment; earlier work using this model; cited from earlier work
endometriotic lesions [4] = conditions: experimental model of endometriosis; cited from earlier work
[5] = 10 mg/kg × 15 days, listed as IKK inhibitor
[6] = 30 mg/kg × 15 days, listed as IKK inhibitor

C#C[C@]1(O)CC[C@H]2[C@@H]3CCC4=Cc5oncc5C[C@]4(C)[C@H]3CC[C@@]21C [Danazol]
recurrence rates ([1]; after up to 4 years): 40%-50% | patients suffering from pain with improved symptoms ([1]; endometriosis patients): 66-100%

CC(=O)N1CCN(C(=O)c2ccc(Nc3nccc(-c4ccc(Cl)cc4)n3)cc2)CC1 [IKK inhibitor-5, 1-(4-{4-[4-(4-Chloro-phenyl)-pyrimidin-2-ylamino]-benzoyl}-piperazin-1-yl)-ethanone]
Lesion size, decrease (endometriotic lesions [2]; 10 mg/kg × 15 days): 90% Decrease | Lesion (% Progesterone) Compared to progesterone treated group, decrease (endometriotic lesions [2]; 10 mg/kg × 15 days): 125% Decrease | Lesion (% Progesterone) Compared to progesterone treated group, decrease (endometriotic lesions [2]; [5]): 125% | Lesion size, decrease (endometriotic lesions [2]; [5]): 90% | Lesion size, decrease (endometriotic lesions [2]; 30 mg/kg × 15 days): 75% Decrease | Lesion (% Progesterone) Compared to progesterone treated group, decrease (endometriotic lesions [2]; 30 mg/kg × 15 days): 100% Decrease | Lesion (% Progesterone) Compared to progesterone treated group, decrease (endometriotic lesions [2]; [6]): 100% | Lesion size, decrease (endometriotic lesions [2]; [6]): 75% | effect on the uterine weight and size of the animals (endometriotic lesions [2]; nude mice, 15 days treatment): no effect

CC(=O)[C@H]1CC[C@H]2[C@@H]3CCC4=CC(=O)CC[C@]4(C)[C@H]3CC[C@]12C [progesterone]
disease progression (endometriotic lesions [3]): prevents disease progression

B1: rh-TBP-1: recombinant human TNFα binding protein (protein, UniProt P19438 30-211, looked up)
extracellular domain: LVPHLGDREKRDSVCPQGKYIHPQNNSICCTKCHKGTYLYNDCPGPGQDTDCRECESGSFTASENHLRHCLSCSKCRKEMGQVEISSCTVDRDTVCGCRKNQYRHYWSENLFQCFNCSLCLNGTVHLSCQEKQNTVCTCHAGFFLRENECVSCSNCKKSLECTKLCLPQIENVKGTEDSGTT
modifications: extracellular domain
size and severity of endometriotic lesions (endometriotic lesions [4]): effective in reducing the size and severity of endometriotic lesions
